{
  "source": "patent US10633345B2",
  "about": "“Human plasma kallikrein inhibitors” (BioCryst Pharmaceuticals, Inc., priority 2014, dated 2020)",
  "key": {"[1]": {"target": "human plasma kallikrein (Homo sapiens (Human), UniProt P03952)", "sequence (P03952 whole entry, looked up)": "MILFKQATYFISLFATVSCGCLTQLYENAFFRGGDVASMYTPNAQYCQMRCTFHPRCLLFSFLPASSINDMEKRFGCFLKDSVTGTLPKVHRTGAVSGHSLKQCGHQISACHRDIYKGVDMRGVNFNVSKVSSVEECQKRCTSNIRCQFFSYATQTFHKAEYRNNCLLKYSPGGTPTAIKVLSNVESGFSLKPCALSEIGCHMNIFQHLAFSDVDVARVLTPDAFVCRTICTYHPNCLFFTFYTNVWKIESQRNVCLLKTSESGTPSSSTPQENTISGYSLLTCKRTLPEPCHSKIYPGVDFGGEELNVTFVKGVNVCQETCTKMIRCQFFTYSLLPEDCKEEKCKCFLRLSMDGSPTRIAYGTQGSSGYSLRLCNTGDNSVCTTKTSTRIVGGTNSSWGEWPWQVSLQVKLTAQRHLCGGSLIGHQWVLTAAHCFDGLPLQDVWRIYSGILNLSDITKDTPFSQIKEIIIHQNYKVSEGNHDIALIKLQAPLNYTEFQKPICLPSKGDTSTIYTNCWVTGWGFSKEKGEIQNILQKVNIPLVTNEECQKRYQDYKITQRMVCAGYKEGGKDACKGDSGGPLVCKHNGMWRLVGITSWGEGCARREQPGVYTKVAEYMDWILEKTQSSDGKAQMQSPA", "sequence (P03952 whole entry partner, looked up)": "as the sequence (P03952 whole entry, looked up) above", "assay": "Plasma kallikrein activity assay (chromogenic substrate S2302)", "type": "biochemical", "details": "2 nM kallikrein, 80 μM S2302, 30° C., pH 7.8; Cheng-Prusoff; values given as bins", "method": "Plasma Kallikrein Activity Assay.\nThe effect of compounds of the invention on human plasma kallikrein activity was determined using the chromogenic substrates (DiaPharma Group, Inc., West Chester, Ohio, USA). In these experiments, 2 nM kallikrein (Enzyme Research Laboratories, South Bend, Ind., USA) was incubated with 80 μM S2302 (H-D-Pro-Phe-Arg-p-nitroaniline) in the absence or presence of increasing concentrations of compounds of the invention in a final volume of 200 μL Tris-HCl buffer (200 mM NaCl; 2.5 mM CaCl2; 50 mM Tris-HCl, pH 7.8).\nData were analyzed using SigmaPlot software (Systat Software, Inc., San Jose, Calif., USA) (Four Parameter Logistic Curve)."}, "[2]": {"test_system": "patients with hereditary angioedema (HAE)", "details": "cited from earlier work"}, "[3]": {"test_system": "mouse model of middle cerebral artery occlusion (MCAO)", "details": "cited from earlier work"}},
  "data": [
    {"molecule": "N#Cc1cccc(C(N)(CCC2CC2)c2ccc(F)c(NC(=O)c3cc(C(F)(F)F)nn3-c3cccc(C(N)=O)c3)c2)c1", "note": "(single isomer, unassigned; (-)) [Compound 267c, (−)-N-(5-(1-amino-1-(3-cyanophenyl)-3-cyclopropylpropyl)-2-fluorophenyl)-1-(3-carbamoylphenyl)-3-(trifluoromethyl)-1H-pyrazole-5-carboxamide]", "values": [
      {"measurement": "Ki", "setting": "[1]", "result": "> 100", "unit": "nM"}
    ]},
    {"molecule": "ecallantide [DX-88]", "values": [
      {"measurement": "edema in patients with hereditary angioedema (HAE)", "setting": "[2]", "result": "alleviates edema"}
    ]},
    {"molecule": "C1-inhibitor: \"a physiological inhibitor (C1-inhibitor)\" (protein, UniProt P05155 23-500, looked up) Plasma protease C1 inhibitor: NPNATSSSSQDPESLQDRGEGKVATTVISKMLFVEPILEVSSLPTTNSTTNSATKITANTTDEPTTQPTTEPTTQPTIQPTQPTTQLPTDSPTQPTTGSFCPGPVTLCSDLESHSTEAVLGDALVDFSLKLYHAFSAMKKVETNMAFSPFSIASLLTQVLLGAGENTKTNLESILSYPKDFTCVHQALKGFTTKGVTSVSQIFHSPDLAIRDTFVNASRTLYSSSPRVLSNNSDANLELINTWVAKNTNNKISRLLDSLPSDTRLVLLNAIYLSAKWKTTFDPKKTRMEPFHFKNSVIKVPMMNSKKYPVAHFIDQTLKAKVGQLQLSHNLSLVILVPQNLKHRLEDMEQALSPSVFKAIMEKLEMSKFQPTLLTLPRIKVTTSQDMLSIMEKLEFFDFSYDLNLCGLTEDPDLQVSAMQHQTVLELTETGVEAAAASAISVARTLLVFEVQQPFLFVLWDQQHKFPVFMGRVYDPRA", "values": [
      {"measurement": "infarct size", "setting": "[3]", "result": "reduced"}
    ]}
  ]
}
